Laboratory results as given in the NIST ThermoML archive (doi:10.1016/j.jct.2019.01.021).
Several values for one entry are separate records, joined by “and”; a condition that tells them apart may be missing. Identical values can stand only once.

Test: molar heat capacity at constant pressure
Details: 101.33 kPa, Small (less than 1 g) adiabatic calorimetry

N.NS(=O)(=O)O [ammonium sulfamate]
Details	molar heat capacity at constant pressure
187.31 K, Crystal 2	118.02 J/K/mol
188.37 K, Crystal 2	118.34 J/K/mol
189.42 K, Crystal 2	118.66 J/K/mol
190 K, Crystal 2	119.06 J/K/mol
190.47 K, Crystal 2	118.99 J/K/mol
191.52 K, Crystal 2	119.43 J/K/mol
192.57 K, Crystal 2	119.89 J/K/mol
193.62 K, Crystal 2	120.26 J/K/mol
194.67 K, Crystal 2	120.69 J/K/mol
195.72 K, Crystal 2	121.06 J/K/mol
196.77 K, Crystal 2	121.57 J/K/mol
197.82 K, Crystal 2	122.07 J/K/mol
198.87 K, Crystal 2	122.46 J/K/mol
199.92 K, Crystal 2	122.56 J/K/mol
200 K, Crystal 2	122.64 J/K/mol
200.85 K, Crystal 2	122.86 J/K/mol
201.65 K, Crystal 2	123.16 J/K/mol
202.45 K, Crystal 2	123.44 J/K/mol
203.24 K, Crystal 2	123.74 J/K/mol
204.05 K, Crystal 2	123.89 J/K/mol
204.85 K, Crystal 2	124.1 J/K/mol
205.65 K, Crystal 2	124.38 J/K/mol
206.45 K, Crystal 2	124.7 J/K/mol
207.25 K, Crystal 2	124.92 J/K/mol
208.05 K, Crystal 2	125.1 J/K/mol
208.86 K, Crystal 2	125.38 J/K/mol
209.66 K, Crystal 2	125.69 J/K/mol
210 K, Crystal 2	125.96 J/K/mol
210.46 K, Crystal 2	125.83 J/K/mol
211.26 K, Crystal 2	126.04 J/K/mol
212.07 K, Crystal 2	126.32 J/K/mol
212.87 K, Crystal 2	126.64 J/K/mol
213.68 K, Crystal 2	127 J/K/mol
214.48 K, Crystal 2	127.38 J/K/mol
215.28 K, Crystal 2	127.75 J/K/mol
216.09 K, Crystal 2	127.78 J/K/mol
216.9 K, Crystal 2	127.98 J/K/mol
217.7 K, Crystal 2	128.19 J/K/mol
218.51 K, Crystal 2	128.52 J/K/mol
219.31 K, Crystal 2	128.78 J/K/mol
220 K, Crystal 2	129.21 J/K/mol
220.12 K, Crystal 2	129.04 J/K/mol
220.93 K, Crystal 2	129.3 J/K/mol
221.73 K, Crystal 2	129.49 J/K/mol
222.54 K, Crystal 2	129.74 J/K/mol
223.35 K, Crystal 2	130.02 J/K/mol
224.16 K, Crystal 2	130.26 J/K/mol
224.97 K, Crystal 2	130.53 J/K/mol
225.78 K, Crystal 2	130.71 J/K/mol
226.59 K, Crystal 2	130.98 J/K/mol
227.4 K, Crystal 2	131.32 J/K/mol
228.21 K, Crystal 2	131.61 J/K/mol
229.02 K, Crystal 2	131.83 J/K/mol
229.83 K, Crystal 2	132.08 J/K/mol
230 K, Crystal 2	132.37 J/K/mol
230.64 K, Crystal 2	132.31 J/K/mol
231.45 K, Crystal 2	132.78 J/K/mol
232.27 K, Crystal 2	133.46 J/K/mol
233.08 K, Crystal 2	133.22 J/K/mol
233.89 K, Crystal 2	133.51 J/K/mol
234.71 K, Crystal 2	133.83 J/K/mol
235.52 K, Crystal 2	134.25 J/K/mol
236.33 K, Crystal 2	134.61 J/K/mol
237.15 K, Crystal 2	134.97 J/K/mol
237.96 K, Crystal 2	135.18 J/K/mol
238.78 K, Crystal 2	135.77 J/K/mol
239.59 K, Crystal 2	135.43 J/K/mol
240 K, Crystal 2	135.44 J/K/mol
240.41 K, Crystal 2	136.44 J/K/mol
241.22 K, Crystal 2	136.59 J/K/mol
242.04 K, Crystal 2	136.32 J/K/mol
242.86 K, Crystal 2	137.27 J/K/mol
243.68 K, Crystal 2	137.4 J/K/mol
244.44 K, Crystal 2	137.03 J/K/mol
244.5 K, Crystal 2	136.97 J/K/mol
244.81 K, Crystal 2	137.21 J/K/mol
244.94 K, Crystal 2	137.26 J/K/mol
245.31 K, Crystal 2	136.68 J/K/mol
245.38 K, Crystal 2	137.26 J/K/mol
245.44 K, Crystal 2	137.55 J/K/mol
245.94 K, Crystal 2	137.54 J/K/mol
245.96 K, Crystal 2	137.42 J/K/mol
246.13 K, Crystal 2	137.45 J/K/mol
246.46 K, Crystal 2	137.69 J/K/mol
246.53 K, Crystal 2	137.6 J/K/mol
246.95 K, Crystal 2	137.65 J/K/mol
246.96 K, Crystal 2	137.71 J/K/mol
247.11 K, Crystal 2	137.65 J/K/mol
247.46 K, Crystal 2	137.8 J/K/mol
247.68 K, Crystal 2	138 J/K/mol
247.77 K, Crystal 2	137.93 J/K/mol
247.97 K, Crystal 2	138.06 J/K/mol
248.25 K, Crystal 2	138.01 J/K/mol
248.47 K, Crystal 2	138.27 J/K/mol
248.59 K, Crystal 2	138.16 J/K/mol
248.83 K, Crystal 2	138.31 J/K/mol
248.98 K, Crystal 2	138.36 J/K/mol
249.41 K, Crystal 2	138.87 J/K/mol
249.42 K, Crystal 2	138.7 J/K/mol
249.48 K, Crystal 2	138.72 J/K/mol
249.98 K, Crystal 2	139.15 J/K/mol and 138.93 J/K/mol
250.24 K, Crystal 2	139.23 J/K/mol
250.49 K, Crystal 2	139.26 J/K/mol
250.56 K, Crystal 2	139.43 J/K/mol
250.99 K, Crystal 2	139.62 J/K/mol
251.06 K, Crystal 2	139.79 J/K/mol
251.14 K, Crystal 2	139.9 J/K/mol
251.5 K, Crystal 2	140.25 J/K/mol
251.71 K, Crystal 2	140.3 J/K/mol
251.88 K, Crystal 2	140.46 J/K/mol
252 K, Crystal 2	140.41 J/K/mol
252.28 K, Crystal 2	140.89 J/K/mol
252.51 K, Crystal 2	140.56 J/K/mol
252.7 K, Crystal 2	140.98 J/K/mol
252.86 K, Crystal 2	141.23 J/K/mol
253.02 K, Crystal 2	141.02 J/K/mol
253.43 K, Crystal 2	141.89 J/K/mol
253.52 K, Crystal 2	141.72 J/K/mol and 141.4 J/K/mol
254.01 K, Crystal 2	143.16 J/K/mol
254.03 K, Crystal 2	142.77 J/K/mol
254.34 K, Crystal 2	145.58 J/K/mol
254.54 K, Crystal 1	146.89 J/K/mol
254.58 K, Crystal 1	148.65 J/K/mol
255.05 K, Crystal 1	140.26 J/K/mol
255.16 K, Crystal 1	140.01 J/K/mol
255.17 K, Crystal 1	141.54 J/K/mol
255.56 K, Crystal 1	139.82 J/K/mol
255.74 K, Crystal 1	139.92 J/K/mol
256 K, Crystal 1	139.89 J/K/mol
256.07 K, Crystal 1	140.15 J/K/mol
256.32 K, Crystal 1	140.33 J/K/mol
256.58 K, Crystal 1	140.36 J/K/mol
256.83 K, Crystal 1	140.15 J/K/mol
256.9 K, Crystal 1	140.4 J/K/mol
257.09 K, Crystal 1	140.26 J/K/mol
257.48 K, Crystal 1	140.61 J/K/mol
257.6 K, Crystal 1	140.56 J/K/mol
257.65 K, Crystal 1	140.39 J/K/mol
258.06 K, Crystal 1	140.66 J/K/mol
258.1 K, Crystal 1	140.61 J/K/mol
258.48 K, Crystal 1	140.51 J/K/mol
258.61 K, Crystal 1	140.63 J/K/mol
258.65 K, Crystal 1	140.92 J/K/mol
259.12 K, Crystal 1	140.78 J/K/mol
259.23 K, Crystal 1	140.91 J/K/mol
259.3 K, Crystal 1	140.91 J/K/mol
259.63 K, Crystal 1	141.01 J/K/mol
259.81 K, Crystal 1	141.1 J/K/mol
260 K, Crystal 1	141.26 J/K/mol
260.12 K, Crystal 1	141.07 J/K/mol
260.15 K, Crystal 1	141.06 J/K/mol
260.39 K, Crystal 1	141.17 J/K/mol
260.66 K, Crystal 1	141.25 J/K/mol
260.95 K, Crystal 1	141.34 J/K/mol
260.97 K, Crystal 1	141.54 J/K/mol
261.17 K, Crystal 1	141.38 J/K/mol
261.55 K, Crystal 1	141.5 J/K/mol
261.68 K, Crystal 1	141.47 J/K/mol
261.77 K, Crystal 1	141.54 J/K/mol
262.13 K, Crystal 1	141.71 J/K/mol
262.19 K, Crystal 1	141.78 J/K/mol
262.61 K, Crystal 1	141.89 J/K/mol
262.71 K, Crystal 1	141.89 J/K/mol
262.73 K, Crystal 1	141.96 J/K/mol
263.3 K, Crystal 1	141.95 J/K/mol
263.44 K, Crystal 1	142.09 J/K/mol
264.27 K, Crystal 1	142.38 J/K/mol
265.1 K, Crystal 1	142.55 J/K/mol
265.93 K, Crystal 1	142.78 J/K/mol
266.76 K, Crystal 1	143.13 J/K/mol
267.59 K, Crystal 1	143.22 J/K/mol
268.42 K, Crystal 1	143.39 J/K/mol
269.25 K, Crystal 1	143.62 J/K/mol
270 K, Crystal 1	144.09 J/K/mol
270.08 K, Crystal 1	143.91 J/K/mol
270.91 K, Crystal 1	144.17 J/K/mol
271.74 K, Crystal 1	144.43 J/K/mol
272.58 K, Crystal 1	144.63 J/K/mol
273.41 K, Crystal 1	144.84 J/K/mol
274.25 K, Crystal 1	145.06 J/K/mol
275.08 K, Crystal 1	145.36 J/K/mol
275.94 K, Crystal 1	145.56 J/K/mol
276.77 K, Crystal 1	145.78 J/K/mol
277.6 K, Crystal 1	145.99 J/K/mol
278.44 K, Crystal 1	146.2 J/K/mol
279.28 K, Crystal 1	146.42 J/K/mol
280 K, Crystal 1	146.75 J/K/mol
280.11 K, Crystal 1	146.67 J/K/mol
280.95 K, Crystal 1	147.01 J/K/mol
281.79 K, Crystal 1	147.27 J/K/mol
282.63 K, Crystal 1	147.37 J/K/mol
283.47 K, Crystal 1	147.57 J/K/mol
284.3 K, Crystal 1	147.9 J/K/mol
285.15 K, Crystal 1	148.03 J/K/mol
285.99 K, Crystal 1	148.24 J/K/mol
286.83 K, Crystal 1	148.69 J/K/mol
287.67 K, Crystal 1	148.8 J/K/mol
288.49 K, Crystal 1	148.98 J/K/mol
289.33 K, Crystal 1	149.33 J/K/mol
290 K, Crystal 1	149.41 J/K/mol
290.17 K, Crystal 1	149.55 J/K/mol
291.01 K, Crystal 1	149.81 J/K/mol
291.85 K, Crystal 1	149.83 J/K/mol
292.69 K, Crystal 1	150.13 J/K/mol
293.53 K, Crystal 1	150.52 J/K/mol
294.38 K, Crystal 1	150.46 J/K/mol
295.22 K, Crystal 1	150.72 J/K/mol
296.07 K, Crystal 1	150.87 J/K/mol
296.92 K, Crystal 1	151.22 J/K/mol
297.77 K, Crystal 1	151.31 J/K/mol
298.15 K, Crystal 1	151.49 J/K/mol
298.61 K, Crystal 1	151.62 J/K/mol
299.46 K, Crystal 1	152.1 J/K/mol
300 K, Crystal 1	151.99 J/K/mol
300.74 K, Crystal 1	152.16 J/K/mol
302.38 K, Crystal 1	152.51 J/K/mol
304 K, Crystal 1	152.9 J/K/mol
305.63 K, Crystal 1	153.27 J/K/mol
307.25 K, Crystal 1	153.72 J/K/mol
308.87 K, Crystal 1	154.08 J/K/mol
310 K, Crystal 1	154.4 J/K/mol
310.45 K, Crystal 1	154.47 J/K/mol
312.03 K, Crystal 1	154.86 J/K/mol
313.62 K, Crystal 1	155.15 J/K/mol
315.2 K, Crystal 1	155.56 J/K/mol
316.77 K, Crystal 1	155.95 J/K/mol
318.35 K, Crystal 1	156.34 J/K/mol
319.87 K, Crystal 1	156.72 J/K/mol
320 K, Crystal 1	156.81 J/K/mol
321.41 K, Crystal 1	157.11 J/K/mol
322.95 K, Crystal 1	157.43 J/K/mol
324.49 K, Crystal 1	157.89 J/K/mol
325.96 K, Crystal 1	158.18 J/K/mol
327.48 K, Crystal 1	158.02 J/K/mol
328.97 K, Crystal 1	158.76 J/K/mol
330 K, Crystal 1	159.14 J/K/mol
330.46 K, Crystal 1	159.4 J/K/mol
331.95 K, Crystal 1	159.74 J/K/mol
333.42 K, Crystal 1	160.19 J/K/mol
334.89 K, Crystal 1	160.55 J/K/mol
